In patent publication US20260294769A1, “ASCORBIC ACID DERIVATIVES AND COSMETIC THEREOF” (SEIWA KASEI COMPANY, LIMITED, priority 2023, published 2026):
Read-outs that look alike come from different tables or passages of the source.

Columns and labels:
[1] = test system: Normal human dermal fibroblasts (NHDF); experiment: Hyaluronic acid production promoting effect (ELISA of hyaluronic acid in supernatant); type: cell-based; conditions: 10 mM or less, 48 hours, control group set to 100%, N=3
Description: Normal human dermal fibroblasts (NHDF) were prepared in D-MEM containing 5% (v/v) fetal bovine serum to a cell density of 2.5×10^4 cells/well, and then pre-incubated on a 96-well plate for 24 hours. After removing the medium, samples prepared in serum-free D-MEM were added to each well and cultured for 48 hours. After the culture was completed, the amount of hyaluronic acid in the supernatant was quantified by ELISA. Measurements were performed in triplicate (N=3).
The amount of hyaluronic acid produced when the sample was measured at a concentration of 10 mM or less was compared with that of the control group, and the results (% values when the control group is set to 100%) are shown in Tables 18 to 20 based on the following criteria.

[2] = test system: Normal human dermal fibroblasts; experiment: Collagen production promoting effect (ELISA of free collagen in supernatant); type: cell-based; conditions: 10 mM or less, 48 hours, control group set to 100%, N=3
Description: Normal human dermal fibroblasts were prepared in D-MEM containing 5% (v/v) fetal bovine serum to a cell density of 2.5×10^4 cells/well, and then pre-incubated for 24 hours on a 96-well plate. After removing the medium, samples prepared to a predetermined concentration in D-MEM containing 5% (v/v) fetal bovine serum were added to each well and cultured for 48 hours. After the culture was completed, the amount of free collagen in the supernatant was quantified by ELISA. Measurements were performed in triplicate (N=3).
The amount of collagen produced when the sample was measured at a concentration of 10 mM or less was compared with that of the control group, and the results (% values when the control group was set to 100%) are shown in Table 17 based on the following criteria.

[3] = Stability Test-1: odor of 1% aqueous solutions adjusted to pH 7 stored at 50° C.; type: physicochemical; conditions: 1% aqueous solution pH 7, 50° C., 10 panelists
Description: (§1) For each of the samples of Synthesis Examples 1 to 6, 1% aqueous solutions were adjusted to pH 3, 5, 7, 8, and 9 with a dilute potassium hydroxide aqueous solution, and then placed in 50 mL screw tubes and sealed. […] Furthermore, the odor and coloration of the samples adjusted to pH 7 were evaluated based on the following methods and criteria, and the results are shown in Table 11.
(§2) • Evaluation was made by 10 panelists according to the following criteria. • 3: Almost odorless. • 2: There is a slight strange odor. • 1: A strong odor is detected. • Based on the results of the above evaluation, the following classification was made: • ◯: Total score of 10 panelists is 25 or more • Δ: Total score of 10 panelists is 16-24 • x: The total score of 10 panelists is 15 or less

[4] = Stability Test-1: coloration of 1% aqueous solutions adjusted to pH 7 stored at 50° C.; type: physicochemical; conditions: 1% aqueous solution pH 7, 50° C., 10 panelists
Description: as §1
• Evaluation was made by 10 panelists according to the following criteria. • 3: Almost no change compared to immediately after preparation. • 2: Color changes compared to immediately after preparation. • 1: Strongly colored compared to immediately after preparation. • Based on the results of the above evaluation, the following classification was made: […]

[5] = Stability Test-1: residual rate of 1% aqueous solutions stored at 50° C. (HPLC); type: physicochemical; conditions: water, 1% aqueous solution; for remaining at 336 h: after 2 weeks, read-out: Residual Rate; for remaining at 672 h: after 4 weeks
Description: as §1
• ⊚: 80% or more • ◯: 50% or more, less than 80% • Δ: 30% or more, less than 50% • x: Less than 30%

[6] = Stability Test-2: odor of cream stored at 50° C.; type: physicochemical; conditions: 10 panelists
Excerpt: as §2
(§3) For each of the samples of Synthesis Examples 9 to 32, (a) and (b) shown in Table 12 were each heated and mixed. After cooling, (c) shown in Table 12 was added to prepare a cream with a pH of 7 or 9. […] The odor and coloration were also evaluated according to the same method and criteria as in Test Example 1. The results regarding the residual rate are shown in Tables 13 and 14, and the results regarding the odor and coloration are shown in Tables 15 and 16.

[7] = Stability Test-2: coloration of cream stored at 50° C.; type: physicochemical; conditions: 10 panelists
Excerpt: • Evaluation was made by 10 panelists according to the following criteria. • 3: Almost no change compared to immediately after preparation. • 2: Color changes compared to immediately after preparation. • 1: Strongly colored compared to immediately after preparation. • Based on the results of the above evaluation, the following classification was made:
as §3

[8] = Stability Test-2: residual rate in cream of pH 7 or 9 stored at 50° C.; type: physicochemical
Description: as §3

[9] = cream pH 7, 50° C., after 2 weeks, 20160 min
[10] = cream pH 7, 50° C., after 4 weeks, 40320 min
[11] = cream pH 9, 50° C., after 2 weeks, 20160 min
[12] = cream pH 9, 50° C., after 4 weeks, 40320 min

Compound	remaining at 336 h ([5]; pH 3, 50° C.) [%]	remaining at 672 h ([5]; pH 3, 50° C.) [%]	remaining at 336 h ([5]; pH 5, 50° C.) [%]	remaining at 672 h ([5]; pH 5, 50° C.) [%]	remaining at 336 h ([5]; pH 7, 50° C.) [%]	remaining at 672 h ([5]; pH 7, 50° C.) [%]	Odor ([6]; after 4 weeks)	Residual Rate [8, 9]	Residual Rate [8, 10]	Residual Rate [8, 11]	Residual Rate [8, 12]	Hyaluronic acid production-promoting effect [1]	Collagen production-promoting effect [2]	Odor ([3]; after 2 weeks)	Odor ([3]; after 4 weeks)	Coloration ([4]; after 2 weeks)	Coloration ([4]; after 4 weeks)	Odor ([6]; after 2 weeks)	Coloration ([7]; after 2 weeks)	Coloration ([7]; after 4 weeks)	also measured
O=C1OC(C(O)CO)C2=C1OCCCO2 (stereo not drawn) [Synthesis Example 2, 2,3-O-(1,3-propanediyl) ascorbic acid]	≥ 80	≥ 80	≥ 80	≥ 80	≥ 80	≥ 80						++ (120%<)	++ (140%<)	∘ (Total score of 10 panelists is 25 or more)	Δ (Total score of 10 panelists is 16-24)	∘ (Total score of 10 panelists is 25 or more)	∘ (Total score of 10 panelists is 25 or more)				remaining at 336 h ([5]; pH 8, 50° C.): ≥ 80%; remaining at 672 h ([5]; pH 8, 50° C.): 50 to 80%; remaining at 336 h ([5]; pH 9, 50° C.): 50 to 80%; remaining at 672 h ([5]; pH 9, 50° C.): 30 to 50%
CCCC(=O)OCC(OC(=O)CCC)C1OC(=O)C2=C1OCCCO2 (stereo not drawn) [Synthesis Example 21, 5,6-O-dibutanoyl-2,3-O-(1,3-propanediyl) ascorbic acid]							Δ (Total score of 10 panelists is 16-24)	⊚ (95% or more)	⊚ (95% or more)	⊚ (95% or more)	⊚ (95% or more)	++ (120%<)	++ (140%<)					◯ (Total score of 10 panelists is 25 or more)	◯ (Total score of 10 panelists is 25 or more)	◯ (Total score of 10 panelists is 25 or more)	
O=C1OC(C(O)CO)C2=C1OCC(O)CO2 (stereo not drawn) [Synthesis Example 4, 2,3-O-(2-hydroxypropane-1,3-diyl) ascorbic acid]	≥ 80	≥ 80	≥ 80	≥ 80	50 to 80	50 to 80						++ (120%<)		∘ (Total score of 10 panelists is 25 or more)	∘ (Total score of 10 panelists is 25 or more)	∘ (Total score of 10 panelists is 25 or more)	∘ (Total score of 10 panelists is 25 or more)				remaining at 336 h ([5]; pH 8, 50° C.): 50 to 80%; remaining at 672 h ([5]; pH 8, 50° C.): 30 to 50%; remaining at 336 h ([5]; pH 9, 50° C.): 50 to 80%; remaining at 672 h ([5]; pH 9, 50° C.): 30 to 50%
O=C1OC(C(O)CO)C2=C1OCC1(COC1)CO2 (stereo not drawn) [Synthesis Example 6, 2,3-O-(3,3-dimethyleneoxetane) ascorbic acid]	≥ 80	≥ 80	≥ 80	≥ 80	50 to 80	50 to 80						++ (120%<)	++ (140%<)	∘ (Total score of 10 panelists is 25 or more)	∘ (Total score of 10 panelists is 25 or more)	∘ (Total score of 10 panelists is 25 or more)	∘ (Total score of 10 panelists is 25 or more)				remaining at 336 h ([5]; pH 8, 50° C.): 50 to 80%; remaining at 672 h ([5]; pH 8, 50° C.): 30 to 50%; remaining at 336 h ([5]; pH 9, 50° C.): 50 to 80%; remaining at 672 h ([5]; pH 9, 50° C.): 30 to 50%
CCCCCCCCCCCCCCCC(=O)OCC(O)C1OC(=O)C2=C1OCCCCO2 (stereo not drawn) [Synthesis Example 15, 6-O-palmitoyl-2,3-O-(1,4-butanediyl) ascorbic acid]							Δ (Total score of 10 panelists is 16-24)	⊚ (95% or more)	⊚ (95% or more)	⊚ (95% or more)	⊚ (95% or more)	++ (120%<)	++ (140%<)					◯ (Total score of 10 panelists is 25 or more)	◯ (Total score of 10 panelists is 25 or more)	◯ (Total score of 10 panelists is 25 or more)	

Now from value to compound, other results behind:

remaining at 336 h ([5]; pH 3, 50° C.) [%]	remaining at 672 h ([5]; pH 3, 50° C.) [%]	remaining at 336 h ([5]; pH 5, 50° C.) [%]	remaining at 672 h ([5]; pH 5, 50° C.) [%]	remaining at 336 h ([5]; pH 7, 50° C.) [%]	remaining at 672 h ([5]; pH 7, 50° C.) [%]	Odor ([6]; after 4 weeks)	Residual Rate [8, 9]	Residual Rate [8, 10]	Residual Rate [8, 11]	Residual Rate [8, 12]	Compound	Hyaluronic acid production-promoting effect [1]	Collagen production-promoting effect [2]	Odor ([3]; after 2 weeks)	Odor ([3]; after 4 weeks)	Coloration ([4]; after 2 weeks)	Coloration ([4]; after 4 weeks)	Odor ([6]; after 2 weeks)	Coloration ([7]; after 2 weeks)	Coloration ([7]; after 4 weeks)	also measured
						Δ (Total score of 10 panelists is 16-24)	⊚ (95% or more)	⊚ (95% or more)	⊚ (95% or more)	⊚ (95% or more)	CCCCCCCCCCCCCCCC(=O)OCC(OC(=O)CCCCCCCCCCCCCCC)C1OC(=O)C2=C1OCCCO2 (stereo not drawn) [Synthesis Example 27, 5,6-O-dipalmitoyl-2,3-O-(1,3-propanediyl) ascorbic acid]	++ (120%<)	++ (140%<)					◯ (Total score of 10 panelists is 25 or more)	◯ (Total score of 10 panelists is 25 or more)	Δ (Total score of 10 panelists is 16-24)	
						Δ (Total score of 10 panelists is 16-24)	⊚ (95% or more)	⊚ (95% or more)	⊚ (95% or more)	⊚ (95% or more)	CCCCCCCC(=O)OCC(OC(=O)CCCCCCC)C1OC(=O)C2=C1OCCCCO2 (stereo not drawn) [Synthesis Example 12, 5,6-O-dioctanoyl-2,3-O-(1,4-butanediyl) ascorbic acid]	++ (120%<)	++ (140%<)					◯ (Total score of 10 panelists is 25 or more)	◯ (Total score of 10 panelists is 25 or more)	◯ (Total score of 10 panelists is 25 or more)	
						Δ (Total score of 10 panelists is 16-24)	⊚ (95% or more)	⊚ (95% or more)	⊚ (95% or more)	⊚ (95% or more)	CC(C)CCCCCCCCCCCCCCC(=O)OCC(OC(=O)CCCCCCCCCCCCCCC(C)C)C1OC(=O)C2=C1OCCCO2 (stereo not drawn) [Synthesis Example 29, 5,6-O-diisostearoyl-2,3-O-(1,3-propanediyl) ascorbic acid]		++ (140%<)					◯ (Total score of 10 panelists is 25 or more)	◯ (Total score of 10 panelists is 25 or more)	◯ (Total score of 10 panelists is 25 or more)	
